Values of other authors as cited in patent US20230233583A1, “USE OF PHYTOCANNABINOIDS FOR TREATING MULTIPLE MYELOMA” (priority 2020, published 2023).

Test system: MM cells
Details: reported in literature (ref. 3); by itself or in synergy with bortezomib; cited from earlier work

SMILES: C=C(C)[C@@H]1CCC(C)=C[C@H]1c1c(O)cc(CCCCC)cc1O [CBD, cannabidiol]
- growth of MM cells, in words: strongly inhibited growth
